Experimental data published in ChEMBL document CHEMBL4184164, “Design, synthesis and biological evaluation of novel oseltamivir derivatives as potent neuraminidase inhibitors” (Bioorg Med Chem Lett, 2017).

Each compound was assayed on Influenza A virus (assay: microbe, parasite or virus in culture). Details: A/WSN/1933(H1N1), MDCK.
In the case of CCOC(=O)C1=C[C@@H](OC(CC)CC)[C@H](NC(C)=O)[C@@H](N)C1 [OSELTAMIVIR], the IC50 is reported as 579 nM. For CCC(CC)[C@H](NC(C)=O)[C@@H]1[C@H](O)[C@@H](C(=O)O)C[C@H]1NC(=N)N [PERAMIVIR ANHYDROUS], the IC50 was 1720 nM.

Each compound was assayed against T1, Sialidase (Clostridium perfringens, UniProt P10481) (assay: Inhibition of Clostridium perfringenes neuraminidase activity using 4-methylumbelliferyl-1-alpha-D-N-acetylneuramic acid sodium salt hydrate as substrate by fluorescence based assay). Details: read-out: IC50.
T1 sequence (P10481 whole entry): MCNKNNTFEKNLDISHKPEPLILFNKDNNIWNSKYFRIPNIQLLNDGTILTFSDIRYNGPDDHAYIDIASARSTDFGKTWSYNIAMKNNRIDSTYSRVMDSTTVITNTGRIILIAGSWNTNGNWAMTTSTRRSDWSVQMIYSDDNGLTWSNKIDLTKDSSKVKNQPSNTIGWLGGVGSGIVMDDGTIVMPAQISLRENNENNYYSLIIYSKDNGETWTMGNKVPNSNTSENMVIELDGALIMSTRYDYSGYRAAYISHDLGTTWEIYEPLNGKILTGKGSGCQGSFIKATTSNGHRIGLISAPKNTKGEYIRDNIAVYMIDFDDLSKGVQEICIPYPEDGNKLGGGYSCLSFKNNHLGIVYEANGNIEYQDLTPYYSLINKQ
Work on CCOC(=O)C1=C[C@@H](OC(CC)CC)[C@H](NC(C)=O)[C@@H](N)C1 [OSELTAMIVIR] yielded an IC50 of 61100 nM. In the case of CCC(CC)[C@H](NC(C)=O)[C@@H]1[C@H](O)[C@@H](C(=O)O)C[C@H]1NC(=N)N [PERAMIVIR ANHYDROUS], the IC50 is reported as 39600 nM.

Same assay, conditions: read-out: pIC50 (converted)
CCCN[C@@H]1C=C(C(=O)O)C[C@H](N)[C@H]1NC(C)=O gave an IC50 of 200 nM. With CCCN(CC)[C@@H]1C=C(C(=O)O)C[C@H](N)[C@H]1NC(C)=O the IC50 was 89.9 nM. CCC(CC)N(C)[C@@H]1C=C(C(=O)O)C[C@H](N)[C@H]1NC(C)=O gave an IC50 of 6 nM. With CCC(=O)N[C@@H]1C=C(C(=O)O)C[C@H](N)[C@H]1NC(C)=O the IC50 was 2700 nM. CCCCN(CC)[C@@H]1C=C(C(=O)O)C[C@H](N)[C@H]1NC(C)=O was tested, and the IC50 was 84.9 nM. CC(=O)N[C@H]1[C@H](N(C)CCc2ccccc2)C=C(C(=O)O)C[C@@H]1N gave an IC50 of 100 nM. CC[C@@H](C)O[C@@H]1C=C(C(=O)O)C[C@H](NC(=N)N)[C@H]1NC(C)=O gave an IC50 of 0.5 nM. Work on CC(=O)N[C@@H]1[C@@H](N)CC(C(=O)O)=C[C@H]1Oc1ccccc1 yielded an IC50 of 530 nM. CCC(CC)O[C@@H]1C(F)=C(C(=O)O)C[C@H](N)[C@H]1NC(C)=O gave an IC50 of 3 nM. Compound CCCCCCC[C@H](CC)O[C@@H]1C=C(C(=O)O)C[C@H](N)[C@H]1NC(C)=O has an IC50 of 1 nM. Compound CC(=O)N[C@@H]1[C@@H](N)CC(C(=O)O)=C[C@H]1OCc1ccccc1 has an IC50 of 619 nM. CCCO[C@@H]1C=C(C(=O)O)C[C@H](N=C(N)N)[C@H]1NC(C)=O gave an IC50 of 2 nM. C=CC[C@H](CC)O[C@@H]1C=C(C(=O)O)C[C@H](N)[C@H]1NC(C)=O was tested, and the IC50 was 1 nM. For CC(=O)N[C@H]1[C@H](O)C=C(C(=O)O)C[C@@H]1N=C(N)N, the IC50 was 100 nM. With CC[C@@H](CCC1CCCCC1)O[C@@H]1C=C(C(=O)O)C[C@H](N)[C@H]1NC(C)=O the IC50 was 1 nM. For CC(=O)N[C@@H]1[C@@H](N)CC(C(=O)O)=C[C@H]1NC(=O)C(C)C, the IC50 was 6400 nM. CC(=O)N[C@H]1[C@H](N(C)C2CCCCC2)C=C(C(=O)O)C[C@@H]1N was tested, and the IC50 was 200 nM. With CCC(CC)N[C@@H]1C=C(C(=O)O)C[C@H](N)[C@H]1NC(C)=O the IC50 was 11 nM. CC[C@H](C)O[C@@H]1C=C(C(=O)O)C[C@H](N)[C@H]1NC(C)=O gave an IC50 of 10 nM. CC[C@H](C)O[C@@H]1C=C(C(=O)O)C[C@H](NC(=N)N)[C@H]1NC(C)=O was tested, and the IC50 was 0.5 nM. CC(=O)N[C@@H]1[C@@H](N)CC(C(=O)O)=C[C@H]1OC(C)C gave an IC50 of 180 nM. In the case of CCC(CC)C(=O)N[C@@H]1C=C(C(=O)O)C[C@H](N)[C@H]1NC(C)=O, the IC50 is reported as 4000 nM. Compound CCCN(CCC)[C@@H]1C=C(C(=O)O)C[C@H](N)[C@H]1NC(C)=O has an IC50 of 12 nM. In the case of CCCCN(C)[C@@H]1C=C(C(=O)O)C[C@H](N)[C@H]1NC(C)=O, the IC50 is reported as 180 nM. CC[C@@H](CC1CCCCC1)O[C@@H]1C=C(C(=O)O)C[C@H](N)[C@H]1NC(C)=O showed an IC50 of 16 nM. Work on CC(=O)N[C@@H]1[C@@H](N)CC(C(=O)O)=C[C@H]1OCCC(F)(F)F yielded an IC50 of 225 nM. CC(=O)N[C@@H]1[C@@H](N)CC(C(=O)O)=C[C@H]1OC1CCCC1 was tested, and the IC50 was 22 nM. For COCO[C@@H]1C=C(C(=O)O)C[C@H](N)[C@H]1NC(C)=O, the IC50 was 2000 nM. With CC[C@H](CCc1ccccc1)O[C@@H]1C=C(C(=O)O)C[C@H](N)[C@H]1NC(C)=O the IC50 was 12 nM. In the case of CC(=O)N[C@@H]1[C@@H](N)CC(C(=O)O)=C[C@H]1OCC(C)C, the IC50 is reported as 200 nM. With CC(=O)N[C@@H]1[C@@H](N)CC(C(=O)O)=C[C@H]1OCCCc1ccc(-c2ccccc2)cc1 the IC50 was 89.9 nM. With CCC(CC)O[C@@H]1C=C(C(=O)O)C[C@H](NC(=N)N)[C@H]1NC(C)=O the IC50 was 0.5 nM. In the case of CCCCO[C@@H]1C=C(C(=O)O)C[C@H](N=C(N)N)[C@H]1NC(C)=O, the IC50 is reported as 3 nM.
